According to ChEMBL document CHEMBL3616390, “Design and synthesis of N-[6-(Substituted Aminoethylideneamino)-2-Hydroxyindan-1-yl]arylamides as selective and potent muscarinic M₁ agonists” (Bioorg Med Chem Lett, 2015):
Active and inactive are the calls of the source. The calls are words filed in the database; no cut-off is given here.

What was measured:
[1] = molecular target: T1, Muscarinic acetylcholine receptor M4 (Homo sapiens, UniProt P08173); assay: Agonist activity at human muscarinic M4 receptor expressed in CHO cells after 30 mins by GTPgamma35S binding assay; assay type: functional, cell-based
T1 sequence (P08173 whole entry): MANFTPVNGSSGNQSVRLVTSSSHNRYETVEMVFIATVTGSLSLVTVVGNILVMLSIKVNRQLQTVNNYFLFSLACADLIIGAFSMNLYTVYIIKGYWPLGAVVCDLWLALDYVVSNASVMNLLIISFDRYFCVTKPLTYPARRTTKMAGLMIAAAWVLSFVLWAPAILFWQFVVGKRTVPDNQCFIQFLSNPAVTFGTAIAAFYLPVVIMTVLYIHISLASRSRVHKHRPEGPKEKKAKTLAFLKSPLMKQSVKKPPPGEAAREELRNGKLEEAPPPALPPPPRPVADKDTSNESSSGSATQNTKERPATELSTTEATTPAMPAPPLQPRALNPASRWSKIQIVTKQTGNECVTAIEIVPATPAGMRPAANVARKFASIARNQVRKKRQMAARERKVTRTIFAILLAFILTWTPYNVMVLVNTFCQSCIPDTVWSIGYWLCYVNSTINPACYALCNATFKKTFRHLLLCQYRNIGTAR

[2] = Dissociation constant, pKa of the compound; assay type: physicochemical
Rattus norvegicus [3] = assay: AUC (0 to 8 hrs) in rat at 10 mg/kg, po; assay type: ADME, organism-based; design: time < 8 hr, dose 10 mg/kg, route oral; conditions: in vivo
[4] = molecular target: T2, Muscarinic acetylcholine receptor M2 (Homo sapiens, UniProt P08172); assay: Agonist activity at human muscarinic M2 receptor expressed in CHO cells after 30 mins by GTPgamma35S binding assay; assay type: functional, cell-based
T2 sequence (P08172 whole entry): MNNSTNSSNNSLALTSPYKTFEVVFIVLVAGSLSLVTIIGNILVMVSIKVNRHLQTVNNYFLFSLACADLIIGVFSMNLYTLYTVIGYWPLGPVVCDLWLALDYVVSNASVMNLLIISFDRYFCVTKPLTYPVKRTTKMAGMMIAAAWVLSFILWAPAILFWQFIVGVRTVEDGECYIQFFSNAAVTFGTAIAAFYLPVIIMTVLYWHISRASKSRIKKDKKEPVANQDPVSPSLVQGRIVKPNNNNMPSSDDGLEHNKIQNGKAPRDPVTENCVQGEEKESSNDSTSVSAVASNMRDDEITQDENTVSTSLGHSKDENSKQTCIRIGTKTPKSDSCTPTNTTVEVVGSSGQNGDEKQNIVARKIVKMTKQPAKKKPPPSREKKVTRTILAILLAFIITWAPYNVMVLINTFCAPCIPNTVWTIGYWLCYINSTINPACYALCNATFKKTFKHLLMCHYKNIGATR

[5] = molecular target: T3, Muscarinic acetylcholine receptor M2 (Homo sapiens) (UniProt P08172); assay: Agonist activity at human muscarinic M2 receptor expressed in CHO cells after 30 mins by GTPgamma35S binding assay relative to acetylcholine; assay type: functional, cell-based
T3 sequence (whole entry): T2 sequence (P08172 whole entry)

[6] = molecular target: T4, Muscarinic acetylcholine receptor M4 (Homo sapiens) (UniProt P08173); assay: Agonist activity at human muscarinic M4 receptor expressed in CHO cells after 30 mins by GTPgamma35S binding assay relative to acetylcholine; assay type: functional, cell-based
T4 sequence (whole entry): T1 sequence (P08173 whole entry)

[7] = molecular target: T5, Muscarinic acetylcholine receptor M1 (Homo sapiens, UniProt P11229); assay: Agonist activity at human muscarinic M1 receptor expressed in CHO cells after 30 mins by GTPgamma35S binding assay; assay type: functional, cell-based
T5 sequence (P11229 whole entry): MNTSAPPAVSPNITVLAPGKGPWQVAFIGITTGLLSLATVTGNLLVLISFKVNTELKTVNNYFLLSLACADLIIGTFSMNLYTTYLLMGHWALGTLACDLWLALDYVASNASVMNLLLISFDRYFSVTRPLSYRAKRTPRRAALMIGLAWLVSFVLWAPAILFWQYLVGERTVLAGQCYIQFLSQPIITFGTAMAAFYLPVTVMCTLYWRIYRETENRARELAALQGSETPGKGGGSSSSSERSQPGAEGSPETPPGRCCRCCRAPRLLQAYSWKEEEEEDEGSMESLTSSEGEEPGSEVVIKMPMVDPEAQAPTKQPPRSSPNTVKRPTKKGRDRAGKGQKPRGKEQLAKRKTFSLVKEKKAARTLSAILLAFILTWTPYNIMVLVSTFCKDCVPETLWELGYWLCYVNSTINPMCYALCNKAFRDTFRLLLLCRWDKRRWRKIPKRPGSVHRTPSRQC

Plasma = assay: Metabolic stability in rat plasma; assay type: ADME, cell-free
[8] = Partition coefficient, log D of the compound; assay type: physicochemical; conditions: octanol/water
[9] = Oral bioavailability in rat; assay type: ADME, organism-based; conditions: in vivo
[10] = Drug uptake in rat whole brain at 10 mg/kg, po measured at 3 hrs; assay type: ADME, organism-based; conditions: read-out: Drug uptake
Rattus norvegicus [11] = assay: Cognitive enhancement activity in rat at 30 mg/kg, po by spatial learning test; assay type: functional, organism-based
[12] = Drug degradation in rat plasma assessed as formamidine hydrolysis after 4 hrs; assay type: ADME, cell-free; conditions: read-out: Drug degradation
[13] = molecular target: T3, Muscarinic acetylcholine receptor M2 (Homo sapiens); assay: Agonist activity at human muscarinic M2 receptor expressed in CHO cells at 280 nM after 30 mins by GTPgamma35S binding assay relative to control; assay type: functional, cell-based
[14] = molecular target: T4, Muscarinic acetylcholine receptor M4 (Homo sapiens); assay: Agonist activity at human muscarinic M4 receptor expressed in CHO cells after 30 mins by GTPgamma35S binding assay relative to oxotremorine-M; assay type: functional, cell-based
[15] = molecular target: T6, Muscarinic acetylcholine receptor M1 (Homo sapiens) (UniProt P11229); assay: Agonist activity at human muscarinic M1 receptor expressed in CHO cells after 30 mins by GTPgamma35S binding assay relative to oxotremorine-M; assay type: functional, cell-based
T6 sequence (whole entry): T5 sequence (P11229 whole entry)

[16] = molecular target: T7, Muscarinic acetylcholine receptor M5 (Homo sapiens, UniProt P08912); assay: Agonist activity at human muscarinic M5 receptor expressed in CHO cells after 30 mins by GTPgamma35S binding assay; assay type: functional, cell-based; conditions: cho
T7 sequence (P08912 whole entry): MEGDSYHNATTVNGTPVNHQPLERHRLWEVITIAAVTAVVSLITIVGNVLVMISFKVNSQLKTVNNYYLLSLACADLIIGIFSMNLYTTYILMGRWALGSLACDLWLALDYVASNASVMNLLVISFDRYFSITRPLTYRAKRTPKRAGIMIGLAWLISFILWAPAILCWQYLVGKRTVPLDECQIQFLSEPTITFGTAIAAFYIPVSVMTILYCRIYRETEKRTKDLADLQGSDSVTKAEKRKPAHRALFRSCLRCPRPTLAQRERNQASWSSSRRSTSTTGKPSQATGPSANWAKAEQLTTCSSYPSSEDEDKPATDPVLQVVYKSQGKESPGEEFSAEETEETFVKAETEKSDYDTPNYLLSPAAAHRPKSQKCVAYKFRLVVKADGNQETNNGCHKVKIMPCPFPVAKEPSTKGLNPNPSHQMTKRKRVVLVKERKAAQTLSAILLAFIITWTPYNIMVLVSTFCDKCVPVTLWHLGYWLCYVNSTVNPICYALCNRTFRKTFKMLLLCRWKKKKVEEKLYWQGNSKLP

[17] = molecular target: T3, Muscarinic acetylcholine receptor M2 (Homo sapiens); assay: Agonist activity at human muscarinic M2 receptor expressed in CHO cells after 30 mins by GTPgamma35S binding assay relative to oxotremorine-M; assay type: functional, cell-based
[18] = molecular target: Muscarinic acetylcholine receptor M3 (Homo sapiens, UniProt P20309); assay: Agonist activity at human muscarinic M3 receptor expressed in CHO cells after 30 mins by GTPgamma35S binding assay; assay type: functional, cell-based; conditions: cho
Chain of Muscarinic acetylcholine receptor M3 (P20309 whole entry): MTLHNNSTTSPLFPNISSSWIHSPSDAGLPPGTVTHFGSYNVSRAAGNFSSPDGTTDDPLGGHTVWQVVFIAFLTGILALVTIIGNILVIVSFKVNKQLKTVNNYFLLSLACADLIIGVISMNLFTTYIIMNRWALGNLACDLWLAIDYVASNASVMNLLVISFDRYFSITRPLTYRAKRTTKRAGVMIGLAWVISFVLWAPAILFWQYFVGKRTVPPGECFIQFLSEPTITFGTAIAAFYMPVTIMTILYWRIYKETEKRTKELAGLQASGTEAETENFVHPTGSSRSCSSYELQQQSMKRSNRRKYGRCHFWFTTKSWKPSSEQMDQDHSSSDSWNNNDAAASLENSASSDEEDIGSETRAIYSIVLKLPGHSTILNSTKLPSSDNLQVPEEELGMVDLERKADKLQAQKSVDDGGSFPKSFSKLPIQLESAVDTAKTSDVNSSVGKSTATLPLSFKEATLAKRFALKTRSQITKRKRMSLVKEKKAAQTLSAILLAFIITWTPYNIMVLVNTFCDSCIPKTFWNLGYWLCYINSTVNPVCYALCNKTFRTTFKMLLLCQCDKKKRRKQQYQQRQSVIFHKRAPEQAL

Rattus norvegicus [19] = assay: AUC (0 to 6 hrs) in rat at 10 mg/kg, po; assay type: ADME, organism-based; design: time < 6 hr, dose 10 mg/kg, route oral; conditions: in vivo
Rattus norvegicus [20] = assay: Cognitive enhancement activity in po dosed rat by 8-arm radial maze test; assay type: functional; conditions: read-out: MED
[21] = Oral bioavailability in monkey; assay type: ADME, organism-based, Macaca mulatta; conditions: rhesus monkey, in vivo

Compound | EC50 [1] | pKa [2] | AUC (Rattus norvegicus [3]) | EC50 [4] | EC50 [7] | logD [8] | concentration at 3 h [10] | Efficacy [14] | Efficacy [15] | EC50 [16] | Efficacy [17] | EC50 [18] | also measured
CN1CCCC/C1=N\c1ccc2c(c1)[C@@H](NC(=O)c1ccc(Br)cc1)[C@H](O)C2 | 113 nM | 9.9 | 506 ng·h/g | 24 nM | 80 nM | 1.04 | < 40 ng/g | – | – | – | – | – | Efficacy [5]: 28%; Efficacy [6]: 34%; Stability (Plasma): Stable; bioavailability [9]: 68%; Activity (Rattus norvegicus [11]): Active
O=C(N[C@@H]1c2cc(/N=C/N3CCCC3)ccc2C[C@H]1O)c1ccc(Br)cc1 | – | – | – | – | – | – | – | – | – | – | – | – | metabolised at 4 h [12]: 50%; Emax [13]: 80%
C/C(=N\c1ccc2c(c1)[C@@H](NC(=O)c1ccc(Br)cc1)[C@H](O)C2)Nc1ccc(F)cc1 | 1110 nM | 8.2 | 1369 ng·h/g | 749 nM | 51 nM | – | 147 ng/g | 23.1% | 79.4% | Not Active | 25.2% | Not Active | –
C/C(=N\c1ccc2c(c1)[C@@H](NC(=O)c1ccc(Br)cc1)[C@H](O)C2)NCc1ccc(F)cc1 | 115 nM | 8.49 | 634 ng·h/g | 71.8 nM | 20.9 nM | 2.01 | 64 ng/g | 33.5% | 89.9% | Not Active | 31.8% | Not Active | –
C/C(=N\c1ccc2c(c1)[C@@H](NC(=O)c1ccc(-c3ccccc3)cc1)[C@H](O)C2)N(C)Cc1ccc(F)cc1 | 1060 nM | 8.3 | – | 693 nM | 22.8 nM | 2.3 | 141 ng/g | 29.7% | 110% | Not Active | 34.6% | Not Active | AUC (Rattus norvegicus [19]): 533 ng·h/g; minimal effective dose (Rattus norvegicus [20]): 1 mg/kg; bioavailability [9]: 32%; bioavailability [21]: 46%
C/C(=N\c1ccc2c(c1)[C@@H](NC(=O)c1ccc(Br)cc1)[C@H](O)C2)N1CCCCC1 | – | – | – | – | – | – | – | – | – | – | – | – | metabolised at 4 h [12]: 5%
C/C(=N\c1ccc2c(c1)[C@@H](NC(=O)c1ccc(Br)cc1)[C@H](O)C2)N(C)c1ccc(F)cc1 | – | – | 4681 ng·h/g | – | 118 nM | – | 891 ng/g | < 20% | 31.5% | Not Active | < 20% | Not Active | –
